Data taken from US20260078114A1, “COMPOUND USED AS INHIBITOR OF CDK4 KINASE AND USE THEREOF” (TYK MEDICINES, INC., priority 2022, published 2026).
Like-named read-outs stand apart in the source and are kept apart here.

Tests used:
[1] = test system: human mantle cell lymphoma cell JEKO-1; experiment: Cellular antiproliferative assay (MTT, 5 days), JEKO-1; type: cell-based; conditions: JEKO-1 cells, 5 days incubation
Method: (§1) Human breast cancer cell MCF-7, ovarian cancer cell A2780, human mantle cell lymphoma cell JEKO-1. DMEM medium (Bio-Channel), DMSO (dimethyl sulfoxide), MTT (thiazolyl blue), 0.25% EDTA-Tripsin (tryptic digest), 1×PBS (phosphate buffer, PH7.2), 96-well plate (Corning), fetal bovine serum (FBS), 10,000 U/mL penicillin-G/streptomycin, high-speed cryo-centrifuge (EPPENDORF 5810R), enzyme-linked immunoassay (Tecan Spark).
(§2) • A) Tumor cells were cultured in DMEM (high sugar with 10% FBS and 100 U/mL penicillin-G/streptomycin) at 37° C., 5% CO2 and saturated humidity until 80-90% dense. • B) Removed the culture medium from 10 cm Petri dishes; • C) Rinsed the cells once with 10 ml 1×PBS; • D) Added 4 ml 0.25% EDTA-Tripsin into 37° C., 5% CO2 incubator for trypsin digestion for 5 minutes, transferred to 15 ml centrifuge tube, centrifuged at 200 g for 5 minutes, discarded the supernatant to get cell precipitate; • E) Resuspended with 4 ml DMEM medium, counted and adjust to 50,000 cells/ml. • F) Added cell suspension to 96-well plate with 100 μL per well volume and incubated overnight at 37° C., 5% CO2 incubator.
(§3) • A) Preparation of gradient dilution solution of the tested compound: the test compound was configured into 1 mM reservoir solution.
(§4) • A) Taking the cell culture plate and adding 10 μL of 5 mg/ml MTT in the biosafety cabinet; • B) Putting the cell culture plate back into the incubator and continued incubation for 3 hours; • C) Taking the cell culture plate and removing the culture medium, adding 100 μL isopropanol (containing 0.4 mM HCl, 0.1% NP-40), and shaking the bed at room temperature for 30 min; and • D) Determining the absorbance value by selecting 570 nm on a TECAN enzyme-linked immunoassay detector.
(§5) The % Cell Viability was calculated using the following formula:
(§6) [formula] • Lum_HC: 0.1% DMSO control cell reading • Lum_Sample: cell readings with compound added • Lum_LC: Blank medium reading

[2] = test system: Human breast cancer cell MCF-7; experiment: Cellular antiproliferative assay (MTT, 5 days), MCF-7; type: cell-based; conditions: MCF-7 cells, 5 days incubation
Method: as §1, §2, §3, §4, §5, §6

[3] = test system: ovarian cancer cell A2780; experiment: Cellular antiproliferative assay (MTT, 5 days), A2780; type: cell-based, human; conditions: A2780 cells, 5 days incubation
Method: as §1, §2, §3, §4, §5, §6

| Structure (SMILES) | IC50 ([1]; Homo sapiens, 120 h) | IC50 ([2]; Homo sapiens, MCF7, 120 h) | IC50 ([3]; Homo sapiens, 120 h) | IC50 [1] | IC50 ([2]; read-out: MCF7 IC50) | IC50 [3] |
| --- | --- | --- | --- | --- | --- | --- |
| C[C@@H]1CCN(C)c2nc3c(F)cc(-c4nc(N[C@@H]5CCOC[C@H]5O)ncc4Cl)cc3n21 [TB-91, (3S,4R)-4-((5-chloro-4-((R)-9-fluoro-1,4-dimethyl-1,2,3,4-tetrahydrobenzo[4,5]imidazo[1,2-a]pyrimidin-7-yl)pyrimidin-2-yl)amino)tetrahydro-2H-pyran-3-ol] | ≤ 0.5 µM | ≤ 0.5 µM | ≤ 0.5 µM | – | – | – |
| CC(C)n1c(N2CCCC2)nc2c(F)cc(-c3nc(N[C@@H]4CCOC[C@H]4O)ncc3Cl)cc21 [TB-11, (3S,4R)-4-((5-chloro-4-(4-fluoro-1-isopropyl-2-(pyrrolidin-1-yl)-1H-benzo[d]imidazol-6-yl)pyrimidin-2-yl)amino)tetrahydro-2H-pyran-3-ol] | ≤ 0.5 µM | ≤ 0.5 µM | ≤ 0.5 µM | – | – | – |
| CC(C)n1c(N(C)C)nc2c(F)cc(-c3nc(Nc4ccc(N5CCNCC5)cn4)ncc3Cl)cc21 [TB-18, 6-(5-chloro-2-((5-(piperazin-1-yl)pyridin-2-yl)amino)pyrimidin-4-yl)-4-fluoro-1-isopropyl-N,N-dimethyl-1H-benzo[d]imidazol-2-amine] | ≤ 0.5 µM | ≤ 0.5 µM | ≤ 0.5 µM | – | – | – |
| C[C@H]1CCN(C)c2nc3c(F)cc(-c4cc(N[C@@H]5CCOC[C@H]5O)ncc4Cl)cc3n21 [TB-149] | – | – | – | ≤ 0.5 µM | ≤ 0.5 µM | ≤ 0.5 µM |
| CC(C)n1c(N2CCOC2=O)nc2c(F)cc(-c3nc(NC4CCN(S(C)(=O)=O)CC4)ncc3Cl)cc21 [TB-26] | ≤ 0.5 µM | ≤ 0.5 µM | ≤ 0.5 µM | – | – | – |
| CC(C)n1c(N2CCOC2=O)nc2c(F)cc(-c3nc(NC4CCN(S(C)(=O)=O)CC4)ncc3F)cc21 [TB-28] | ≤ 0.5 µM | ≤ 0.5 µM | ≤ 0.5 µM | – | – | – |
| CC(C)n1c(N2CCOC2=O)nc2c(F)cc(-c3nc(Nc4ccc(S(=O)(=O)NCCN(C)C)cc4)ncc3Cl)cc21 [TB-38, 4-((5-chloro-4-(4-fluoro-1-isopropyl-2-(2-oxooxazolidin-3-yl)-1H-benzo[d]imidazol-6-yl)pyrimidin-2-yl)amino)-N-(2-(dimethylamino)ethyl)benzenesulfonamide] | ≤ 0.5 µM | ≤ 0.5 µM | ≤ 0.5 µM | – | – | – |
| CN1CCCn2c1nc1c(F)cc(-c3nc(N[C@@H]4CCOC[C@H]4O)ncc3Cl)cc12 [TB-40] | ≤ 0.5 µM | ≤ 0.5 µM | ≤ 0.5 µM | – | – | – |
| CN1CCCn2c1nc1c(F)cc(-c3nc(Nc4ccc(C#N)cc4)ncc3Cl)cc12 [TB-133, 4-((5-chloro-4-(9-fluoro-1-methyl-1,2,3,4-tetrahydrobenzo[4,5]imidazo[1,2-a]pyrimidin-7-yl)pyrimidin-2-yl)amino)benzonitrile] | ≤ 0.5 µM | ≤ 0.5 µM | ≤ 0.5 µM | – | – | – |
| C[C@H]1C[C@H](C)n2c(nc3c(F)cc(-c4nc(N[C@@H]5CCOC[C@H]5O)ncc4Cl)cc32)N1C [TB-153] | ≤ 0.5 µM | ≤ 0.5 µM | ≤ 0.5 µM | – | – | – |
| C[C@@H]1C[C@H](C)n2c(nc3c(F)cc(-c4nc(N[C@@H]5CCOC[C@H]5O)ncc4Cl)cc32)N1C [TB-154] | ≤ 0.5 µM | ≤ 0.5 µM | ≤ 0.5 µM | – | – | – |
| CC(C)n1c(N(C)C)nc2c(F)cc(-c3nc(N[C@@H]4CCN(S(C)(=O)=O)C[C@H]4O)ncc3Cl)cc21 [TB-13, (3R,4R)-4-((5-chloro-4-(2-(dimethylamino)-4-fluoro-1-isopropyl-1H-benzo[d]imidazol-6-yl)pyrimidin-2-yl)amino)-1-(methylsulfonyl)piperidin-3-ol] | ≤ 0.5 µM | ≤ 0.5 µM | ≤ 0.5 µM | – | – | – |
| CN1CCn2c1nc1c(F)cc(-c3nc(NC4CCN(S(C)(=O)=O)CC4)ncc3Cl)cc12 [TB-52, 5-chloro-4-(8-fluoro-1-methyl-2,3-dihydro-1H-benzo[d]imidazo[1,2-a]imidazol-6-yl)-N-(1-(methylsulfonyl)piperidin-4-yl)pyrimidin-2-amine] | ≤ 0.5 µM | ≤ 0.5 µM | ≤ 0.5 µM | – | – | – |
| COCc1cc(Nc2ncc(Cl)c(-c3cc(F)c4nc5n(c4c3)CCCN5C)n2)ccn1 [TB-130, 5-chloro-4-(9-fluoro-1-methyl-1,2,3,4-tetrahydrobenzo[4,5]imidazo[1,2-a]pyrimidin-7-yl)-N-(2-(methoxymethyl)pyridin-4-yl)pyrimidin-2-amine] | ≤ 0.5 µM | ≤ 0.5 µM | ≤ 0.5 µM | – | – | – |
| CN1C(=O)CC(C)(C)n2c1nc1c(F)cc(-c3cc(N[C@@H]4CCOC[C@H]4O)ncc3Cl)cc12 [TB-162] | – | – | – | ≤ 0.5 µM | ≤ 0.5 µM | ≤ 0.5 µM |
| CC(C)n1c(N2CCOC2=O)nc2c(F)cc(-c3nc(NC4CCN(S(C)(=O)=O)CC4(F)F)ncc3Cl)cc21 (stereo not drawn) [TB-35] | ≤ 0.5 µM | ≤ 0.5 µM | ≤ 0.5 µM | – | – | – |
| CC1CCN(C)c2nc3c(F)cc(-c4nc(N[C@@H]5CCOC[C@H]5O)ncc4Cl)cc3n21 (mixture of isomers) [TB-44, (3S,4R)-4-((5-chloro-4-(9-fluoro-1,4-dimethyl-1,2,3,4-tetrahydrobenzo[4,5]imidazo[1,2-a]pyrimidin-7-yl)pyrimidin-2-yl)amino)tetrahydro-2H-pyran-3-ol] | ≤ 0.5 µM | ≤ 0.5 µM | ≤ 0.5 µM | – | – | – |
| CNS(=O)(=O)c1ccc(Nc2ncc(Cl)c(-c3cc(F)c4nc5n(c4c3)C(C)CCN5C)n2)cc1 (stereo not drawn) [TB-53, 4-((5-chloro-4-(9-fluoro-1,4-dimethyl-1,2,3,4-tetrahydrobenzo[4,5]imidazo[1,2-a]pyrimidin-7-yl)pyrimidin-2-yl)amino)-N-methylbenzenesulfonamide] | ≤ 0.5 µM | ≤ 0.5 µM | ≤ 0.5 µM | – | – | – |
| CN1CCCn2c1nc1c(F)cc(-c3nc(Nc4ccncc4)ncc3Cl)cc12 [TB-90] | ≤ 0.5 µM | 0.5 to 2 µM | ≤ 0.5 µM | – | – | – |
| CC1CCN(C)c2nc3c(F)cc(-c4nc(NC5CCN(S(C)(=O)=O)CC5)ncc4Cl)cc3n21 (stereo not drawn) [TB-51, 5-chloro-4-(9-fluoro-1,4-dimethyl-1,2,3,4-tetrahydrobenzo[4,5]imidazo[1,2-a]pyrimidin-7-yl)-N-(1-(methylsulfonyl)piperidin-4-yl)pyrimidin-2-amine] | ≤ 0.5 µM | ≤ 0.5 µM | ≤ 0.5 µM | – | – | – |
| CC(C)n1c(N2CC[C@@H](O)C2)nc2c(F)cc(-c3nc(N[C@@H]4CCOC[C@H]4O)ncc3Cl)cc21 [TB-7, (R)-1-(6-(5-chloro-2-(((3S,4R)-3-hydroxytetrahydro-2H-pyran-4-yl)amino)pyrimidin-4-yl)-4-fluoro-1-isopropyl-1H-benzo[d]imidazol-2-yl)pyrrolidin-3-ol] | ≤ 0.5 µM | ≤ 0.5 µM | ≤ 0.5 µM | – | – | – |
| CC1(C)CSc2nc3c(F)cc(-c4nc(N[C@@H]5CCOC[C@H]5O)ncc4Cl)cc3n2C1 [TB-146] | – | – | – | ≤ 0.5 µM | ≤ 0.5 µM | ≤ 0.5 µM |
| CC(C)n1c(N2CCCOC2=O)nc2c(F)cc(-c3nc(N[C@@H]4CCOC[C@H]4O)ncc3Cl)cc21 [TB-25] | ≤ 0.5 µM | 0.5 to 2 µM | ≤ 0.5 µM | – | – | – |
| CC(C)n1c(N2CC(O)C2)nc2c(F)cc(-c3nc(N[C@@H]4CCOC[C@H]4O)ncc3Cl)cc21 [TB-14, 1-(6-(5-chloro-2-(((38,4R)-3-hydroxytetrahydro-2H-pyran-4-yl)amino)pyrimidin-4-yl)-4-fluoro-1-isopropyl-1H-benzo[d]imidazol-2-yl)azetidin-3-ol] | ≤ 0.5 µM | ≤ 0.5 µM | ≤ 0.5 µM | – | – | – |
